Laboratory results taken from patent US20220160604A1, “EMULSION COMPOSITION COMPRISING ULTRAVIOLET WAVELENGTH CONVERSION SUBSTANCE AND ORGANIC OILY PHASE THICKENER” (Shiseido Company, Ltd., priority 2019, published 2022).

Tested on: Human dermal fibroblasts
Assay: Cell activity (AlamarBlue) of cells irradiated with UV through a UV wavelength conversion substance
Type: cell-based
Conditions: for cell activity at UV irradiation (relative fluorescence intensity): UV dose 0, 10, 25, 50, 75 or 100 mJ/cm^2, FIG. 3
Description: 1. Human dermal fibroblasts and human skin keratinocytes purchased from Kurabo Industries Ltd. were used. A cell suspension (1 mL) stored in liquid nitrogen was thawed in a water bath (37° C.) to an extent that small ice pellets remained, and then diluted with 9 mL of warm medium.
10. Depending on the cell type, fibroblasts were resuspended in FGM or KGM at a concentration of 2×10^4 cells/well (500 μL), and keratinocytes were resuspended in FGM or KGM at a concentration of 4×10^4 cells/well (500 μL) and plated 24-well plates.
11. Cells were seeded in 24-well plates and the media were changed periodically (once every 2 days for fibroblasts and once every 2 to 3 days for keratinocytes) and the cells were grown until 60 to 70% confluence (depending on the type of experiment) was reached. (Note: Fibroblasts should reach the desired confluency in 24 hours at a cell density of 2×10^4 cells/well. When the cell density is low, for example, 1×10^4 cells/well, it takes 48 hours for fibroblasts to reach the desired confluency.)
12. 24 hours before irradiation, the medium was changed to a supplement-free medium (in the case of keratinocytes) or a medium containing a low concentration of serum (0.5% FCS) (in the case of fibroblasts).
1. A solar simulator was turned on at least 30 minutes before irradiation to warm up a lamp. The solar simulator was set to use a UG11 filter. UG11 filters are filters that allow only UVB to pass and cut light of other wavelengths.
3. The cells prepared in Experiment 1-2 were washed once with warm PBS.
4. To each well was added 0.5 mL of a warmed Martinez solution (145 mM NaCl, 5.5 mM KCl, 1.2 mM MgCl2.6H2O, 1.2 mM NaH2PO4.2H2O, 7.5 mM HEPES, 1 mM CaCl2, and 10 mM D-glucose).
5. As depicted in FIG. 1, cell wells were placed on a plate. Then, 0.4 ml of a solution containing the UV wavelength conversion substances (1) to (4) prepared in Experiment 1-1 was injected into each well of a 24-well plate. […]
4. Fluorescence measurement values at 544 nm/590 nm were read using a fluorometer (OPwave +, Ocean Photonics). […]

Q: How did the “cell activity at UV irradiation (relative fluorescence intensity)” value (0.4% C-phycocyanin solution) turn out when C-phycocyanin was run?
A: the decrease in cell activity was suppressed

Q: And the “cell activity at UV irradiation (relative fluorescence intensity)” value (2% C-phycocyanin solution)?
A: the cell activity was even increased

Q: And the “cell activity of cells having activity temporarily reduced by UV (relative fluorescence intensity)” value (pre-irradiation 400 mJ/cm^2 without substance, then UV 0-200 mJ/cm^2 through 0.4% or 2% C-phycocyanin (effect equivalent at both), FIG. 5)?
A: cell activity was recovered
